Reference: USRE38425E1, “Semicarbazones having CNS activity and pharmaceutical preparations containing same” (University of Saskatchewan Technologies, Inc., priority 1995, dated 2004)
Where “and” joins values, the source holds several entries; their conditions need not be identical. Equal entries are not always repeated. Where two headings read alike, the source gives them in different places.

What was measured:
kindled rat = kindled rat test (corneal kindled rat screen); type: in vivo, rats; details: for ED50: Rattus norvegicus, read-out: ED50 (dose required to reduce seizures from stage 5 to stage 3 or less); for protection in the corneal kindled rat screen: in vivo
From the text: Particularly preferred compounds according to the present invention are 4-(4′-fluorophenoxy)benzaldehyde semicarbazone and 4-(thiophenoxy)benzaldehyde semicarbazone. […] Incidentally, the kindled rat screen is described by R. J. Racine in “Modification of Seizure Activity by Electrical Stimulation. II. Motor Seizure”, Electroencephalogr.Clin.Neurophysiol., 1972, 32, 281-294, and by G. Skeen et al. In “Development of Kindled Seizures Following Electrical Stimulation via the Cornea”, Soc.Neurosci., 1990, 16(1), 307; the disclosures of which are incorporated herein by reference.
The kindled rat test was undertaken by reported procedures (as indicated above). Compound 4b was administered orally and the animals challenged with electrical stimuli 2h later. The ED50 is the dose required to reduce seizures from stage 5 to stage 3 or less and these stages are described as follows namely stage 1 is mouth and facial clonus, stage 2 is stage 1 plus head nodding, stage 3 is stage 2 plus forelimb clonus, stage 4 is stage 3 plus rearing and stage 5 is stage 4 plus repeated rearing and falling.

mice [1] = assay: MES screen after intraperitoneal injection in mice; type: in vivo; details: time t (h) per compound as in the table; for ED50: Mus musculus, ip
mice [2] = details: intraperitoneal injection in mice; time t (h) per compound as in the table
Protocol: An initial anticonvulsant evaluation of the compounds prepared according to Example 1 was undertaken by administering the compounds by the intraperitoneal route to mice. Protection and/or neurotoxicity was noted 0.5 and 4 hours after administering doses of 30, 100 and 300 mg/kg of each semicarbazone to the animals.
Doses of 30, 100 and 300 mg/kg were injected by the intraperitoneal route into mice and evaluated in the MES, scPTZ and neurotoxicity screens one half and four hours after administration.

rats [3] = assay: MES screen after oral administration to rats; details: for ED50: Rattus norvegicus, po
Protocol: The majority of the compounds were examined for oral activity in rats. Initially doses of 50 mg/kg of the semicarbazones were administered.
Evaluation of most of the semicarbazones and analogs in the MES and neurotoxicity tests after oral administration to rats was performed.

rats [4] = details: rat, in vivo, po
Protocol: (§1) Initially doses of 50 mg/kg of the semicarbazones were administered.

rats [5] = assay: scPTZ screen after oral administration to rats
Protocol: as §1

rats [6] = assay: neurotoxicity screen after oral administration to rats; details: oral administration to rats; time t (h) per compound as in the table
Protocol: as §1

epileptic chicken = epileptic chicken model (intermittent photic stimulation); type: in vivo; details: convulsions induced by intermittent photic stimulation
From the text: Two series of compounds were examined with the aim of observing whether oxygen or sulfur is a preferable spacer atom between the two aryl rings and also to compare the ED50 figures with those obtained in the rat oral and mouse intraperitoneal screens.

mice [7] = test system: mice
in vivo = details: rat, po
Protocol: as §1

[8] = doses indicated in Table 1, after 0.5 h
[9] = doses indicated in Table 1, after 1 h
[10] = doses indicated in Table 1, after 2 h
[11] = oral administration to rats, dose 12.5 mg/kg, 0.5 h
[12] = oral administration to rats, dose 12.5 mg/kg, 1 h
[13] = oral administration to rats, dose 12.5 mg/kg, 2 h
[14] = oral administration to rats, dose 12.5 mg/kg, 4 h
[15] = oral administration to rats, time t (h) per compound as in the table
[16] = intraperitoneal injection in mice
[17] = oral administration to rats, dose 12.5 mg/kg, 0.25 h
[18] = intraperitoneal injection in mice, time t (h) per compound as in the table
[19] = oral administration to rats, dose 50 mg/kg, 0.25 h
[20] = oral administration to rats, dose 50 mg/kg, 0.5 h
[21] = oral administration to rats, dose 50 mg/kg, 1 h
[22] = oral administration to rats, dose 50 mg/kg, 2 h
[23] = oral administration to rats, dose 50 mg/kg, 4 h
[24] = intraperitoneal injection in mice, read-out: MES screen ED50
[25] = read-out: MES screen ED50 (mg/kg)
[26] = doses indicated in Table 1, after 4 h

## CCCC(CCC)C(=O)O [Valproic acid, reference compound]
Kindled rat
  ED50: 117 mg/kg
Mice [1]; read-out: MES screen ED50 (mg/kg), intraperitoneal injection in mice
  ED50: 287 mg/kg
Mice [2]
  acPTZ screen ED50: 209 mg/kg
Rats [3]; read-out: MES screen ED50 (mg/kg), oral administration to rats, time t (h) per compound as in the table
  ED50: 395 mg/kg
Rats [4]
  neurotoxicity screen TD50: 859 mg/kg

## NC(=O)NN=Cc1ccc(Sc2ccccc2)cc1 [4-(thiophenoxy)benzaldehyde semicarbazone]
Kindled rat
  protection in the corneal kindled rat screen: afford protection

## Cc1ccccc1Oc1ccc(C=NNC(N)=O)cc1 [Compound 5n]
Rats [5]; [8]
  number of rats protected in the scPTZ screen: 1/4
Rats [5]; [9]
  number of rats protected in the scPTZ screen: 1/4
Rats [5]; [10]
  number of rats protected in the scPTZ screen: 1/4
Rats [3]; [11]
  MES screen 0.5 h: number of rats out of 4 which were protected: 4
Rats [3]; [12]
  MES screen 1 h: number of rats out of 4 which were protected: 3
Rats [3]; [13]
  MES screen 2 h: number of rats out of 4 which were protected: 4
Rats [3]; [14]
  MES screen 4 h: number of rats out of 4 which were protected: 4
Rats [3]; [15]
  MES screen ED50: 5.65 mg/kg
Rats [6]
  neurotoxicity screen TD50: >500 mg/kg

## NC(=O)NN=Cc1ccc(Sc2ccc(Br)cc2)cc1 [Compound 16c]
Epileptic chicken
  ED50 in the epileptic chicken model: 1.5 mg/kg
Mice [1]; [16]
  MES screen ED50: 24.37 mg/kg
Mice [2]
  acPTZ screen ED50: >200 mg/kg
Rats [3]; [17]
  MES screen: number of rats out of 4 which were protected: 0
Rats [3]; [11]
  MES screen: number of rats out of 4 which were protected: 1
Rats [3]; [12]
  MES screen: number of rats out of 4 which were protected: 3
Rats [3]; [13]
  MES screen: number of rats out of 4 which were protected: 4
Rats [3]; [14]
  MES screen: number of rats out of 4 which were protected: 4
Mice [7]; [18]
  neurotoxicity screen TD50: 122.57 mg/kg

## NC(=O)NN=Cc1ccc(Sc2ccc(Cl)cc2)cc1 [Compound 16b]
Epileptic chicken
  ED50 in the epileptic chicken model: 1.0 mg/kg
Mice [1]; [16]
  MES screen ED50: 16.22 mg/kg
Mice [2]
  acPTZ screen ED50: >120 mg/kg
Rats [3]; [19]
  MES screen: number of rats out of 4 which were protected: 1
Rats [3]; [20]
  MES screen: number of rats out of 4 which were protected: 4
Rats [3]; [21]
  MES screen: number of rats out of 4 which were protected: 4
Rats [3]; [22]
  MES screen: number of rats out of 4 which were protected: 4
Rats [3]; [23]
  MES screen: number of rats out of 4 which were protected: 4
Mice [7]; [18]
  neurotoxicity screen TD50: 53.18 mg/kg

## NC(=O)NN=Cc1ccc(Sc2ccc(F)cc2)cc1 [Compound 16a]
Epileptic chicken
  ED50 in the epileptic chicken model: 1.5 mg/kg
Mice [1]; [16]
  MES screen ED50: 12.37 mg/kg
Mice [2]
  acPTZ screen ED50: >120 mg/kg
Rats [3]; [17]
  MES screen: number of rats out of 4 which were protected: 1
Rats [3]; [11]
  MES screen: number of rats out of 4 which were protected: 3
Rats [3]; [12]
  MES screen: number of rats out of 4 which were protected: 4
Rats [3]; [13]
  MES screen: number of rats out of 4 which were protected: 4
Rats [3]; [14]
  MES screen: number of rats out of 4 which were protected: 4
Rats [6]
  neurotoxicity screen TD50: 183.05 mg/kg
Mice [7]; [18]
  neurotoxicity screen TD50: 88.00 mg/kg

## NC(=O)N1c2ccccc2C=Cc2ccccc21 [Carbamazepine, reference compound]
Kindled rat
  ED50: 28.9 mg/kg
Mice [1]; [24]
  ED50: 9.85 mg/kg
Mice [2]
  acPTZ screen ED50: >50 mg/kg
Rats [3]; [25]
  ED50: 3.57 mg/kg
Rats [6]
  neurotoxicity screen TD50: 361 mg/kg
Mice [7]; mouse, in vivo, 0.5 h
  toxicity screen 0.5 h: minimum dose whereby bioactivity was demonstrated in half or more of the mice: 100 mg/kg
  toxicity screen: minimum dose whereby bioactivity was demonstrated in half or more of the mice: 100 mg/kg
Mice [7]; mouse, in vivo, 4 h
  toxicity screen 4 h: minimum dose whereby bioactivity was demonstrated in half or more of the mice: 300 mg/kg
  toxicity screen: minimum dose whereby bioactivity was demonstrated in half or more of the mice: 300 mg/kg
Mice [7]; mouse, in vivo, ip
  neurotoxicity screen TD50: 47.8 mg/kg

## NC(=O)NN=Cc1ccc(Oc2ccc(I)cc2)cc1 [Compound 4e]
Rats [5]; [8]
  number of rats protected in the scPTZ screen: 1/4
Rats [5]; [9]
  number of rats protected in the scPTZ screen: 1/4
Rats [5]; [26]
  number of rats protected in the scPTZ screen: 1/4
Rats [3]; [19]
  MES screen 0.25 h: number of rats out of 4 which were protected: 3
Rats [3]; [20]
  MES screen 0.5 h: number of rats out of 4 which were protected: 4
Rats [3]; [21]
  MES screen 1 h: number of rats out of 4 which were protected: 4
Rats [3]; [22]
  MES screen 2 h: number of rats out of 4 which were protected: 4
Rats [3]; [23]
  MES screen 4 h: number of rats out of 4 which were protected: 4

## CCCCc1ccc(Oc2ccc(C=NNC(N)=O)cc2)cc1 [Compound 5r]
Mice [1]; [16]
  MES screen ED50: 13.36 mg/kg
Rats [5]; [9]
  number of rats protected in the scPTZ screen: 1/4
Rats [5]; [10]
  number of rats protected in the scPTZ screen: 2/4
Rats [5]; [26]
  number of rats protected in the scPTZ screen: 1/4
Mice [2]
  acPTZ screen ED50: 86.93 mg/kg
Rats [3]; [11]
  MES screen 0.5 h: number of rats out of 4 which were protected: 2
Rats [3]; [12]
  MES screen 1 h: number of rats out of 4 which were protected: 2
Rats [3]; [13]
  MES screen 2 h: number of rats out of 4 which were protected: 3
Rats [3]; [14]
  MES screen 4 h: number of rats out of 4 which were protected: 4
Rats [3]; [15]
  MES screen ED50: 3.21 mg/kg
Rats [6]
  neurotoxicity screen TD50: >3.22 mg/kg
Mice [7]; [18]
  neurotoxicity screen TD50: 131.27 mg/kg

## O=C1NC(=O)C(c2ccccc2)(c2ccccc2)N1 [Phenytoin, reference compound]
In vivo
  TD50: > 500 mg/kg
Kindled rat
  ED50: > 100 mg/kg
Mice [1]; [24]
  ED50: 6.32 mg/kg
Mice [1]; [16]
  MES screen ED50: 6.48 mg/kg
Mice [2]
  acPTZ screen ED50: >50 mg/kg
Rats [3]; [25]
  ED50: 23.2 mg/kg
Mice [7]; [18]
  neurotoxicity screen TD50: 41.23 mg/kg and 42.8 mg/kg
Mice [7]; mouse, in vivo, 0.5 h
  toxicity screen 0.5 h: minimum dose whereby bioactivity was demonstrated in half or more of the mice: 100 mg/kg
  toxicity screen: minimum dose whereby bioactivity was demonstrated in half or more of the mice: 100 mg/kg
Mice [7]; mouse, in vivo, 4 h
  toxicity screen 4 h: minimum dose whereby bioactivity was demonstrated in half or more of the mice: 100 mg/kg
  toxicity screen: minimum dose whereby bioactivity was demonstrated in half or more of the mice: 100 mg/kg

## NC(=O)NN=Cc1ccc(Oc2ccc(F)cc2)cc1 [4-(4′-fluorophenoxy)benzaldehyde semicarbazone]
Kindled rat
  protection in the corneal kindled rat screen: afford protection

## NC(=O)NN=Cc1ccc(Sc2ccccc2)cc1 [Compound 15a]
Epileptic chicken
  ED50 in the epileptic chicken model: 2.5 mg/kg
Mice [1]; [16]
  MES screen ED50: 15.62 mg/kg
Mice [2]
  acPTZ screen ED50: >46 mg/kg
Rats [3]; [20]
  MES screen: number of rats out of 4 which were protected: 4
Rats [3]; [21]
  MES screen: number of rats out of 4 which were protected: 4
Rats [3]; [22]
  MES screen: number of rats out of 4 which were protected: 4
Rats [3]; [23]
  MES screen: number of rats out of 4 which were protected: 4
Rats [6]
  neurotoxicity screen TD50: >496 mg/kg
Mice [7]; [18]
  neurotoxicity screen TD50: 181.00 mg/kg
